# Measured values as given in article PMC5450702 (Toxins, 2017).
# Assays:
# mice = assay: CFA-induced inflammation and thermal hyperalgesia; assay type: in vivo, CD-1 mice
# Experimental: All experiments were approved by the Animal Care and Use Committee of the Branch of the IBCh RAS (Pushchino, Russia) protocol number No. 492/16. Adult male CD-1 mice (weight 20–30 g; obtained from the Animal Breeding Facility Branch of Shemyakin-Ovchinnikov Institute of Bioorganic Chemistry, Russian Academy of Sciences, Pushchino, Russia Federation) were housed at room temperature (23 ± 2 °C) and subjected to a 12 h light–dark cycle with food and water available ad libitum. […] The significance of the data was determined by Analysis of variance (ANOVA) followed by Turkey’s post-hoc test. Data are presented as mean ± SEM.
# Paw inflammation and thermal hyperalgesia was induced using Complete Freund’s Adjuvant (CFA) suspended in an oil/saline (1:1) emulsion. The mice were injected with 20 µL of CFA emulsion into the plantar surface of the left hind-paw. The control mice were injected with 20 µL of saline. […] Paw withdrawal latency was recorded using a hot plate (53 °C) 30 min after peptide or saline administration. […] Percent inflammation was calculated according to the formula ((Postdose paw diameter − Naive paw diameter)/(Predose paw diameter − Naive paw diameter)) × 100.
# [1] = ref [45], cited from earlier work
# Experimental: The capability of defensins to interact with microbial membranes is determined by the shape of the molecules, the ratio of polar to hydrophobic residues on the peptide surface, and the total positive charge given through basic amino acids rather than by their individual primary structures. Usually, increasing the overall positive charge will increase the antimicrobial activity of AMPs due to the selective action of AMPs on negatively charged bacterial membranes. Indeed, the AMP cryptidin-4 (Crp4, charge +8) more effectively associates with negatively charged biological membranes than ne ...
# [2] = ref [11]; cited from earlier work
# sodium channels = settings: ref [11]; cited from earlier work
# [3] = tested on: myocardial voltage gated Na^+ channel; design: method as in PMID 1686683; settings: ref [41]; cited from earlier work
# TRPA1 = settings: ref [53]; cited from earlier work
# Excerpt: Most probably, this peptide can potentiate and defunctionalize the TRPA1 receptor on sensory neurons or desensitize neurons. […] In our study, defunctionalization of ...
molecule,measurement,setting,value
CCC(=N\O)/C(C)=C/c1ccc(F)cc1 [A-967079],"effect of TRPA1 antagonist on Ueq 12-1 action, CFA-induced inflammation",mice; A-967079 20 mg/kg p.o. 1 h before Ueq 12-1 0.2 mg/kg i.v.,completely blocked the effect of peptide Ueq 12-1
same,"effect of TRPA1 antagonist on Ueq 12-1 action, thermal hyperalgesia","mice; A-967079 20 mg/kg p.o., Ueq 12-1 0.2 mg/kg i.v., n = 7–8",completely blocked the effect of peptide Ueq 12-1
"cryptidin-4 (Crp4: mouse alpha-defensin 4 antimicrobial peptide (LRGLLCYCRKGHCKRGERVRGTCGIRFLYCCPRR; UniProt P28311 59-92, looked up)",charge,[1],+8
same,association with membranes,[1]; versus neutral membranes,more effectively associates with negatively charged biological membranes than neutral membranes
neurotoxin 2 (ATX-II),antimicrobial properties,[2],have antimicrobial properties
same,effect on sodium channels gating,sodium channels,affect sodium channels gating
Anthopleurin-A: 49-residue polypeptide from Anthopleura xanthogrammica,effect on myocardial voltage gated Na^+ channel,[3],delayed inactivation
C=C1C(=O)O[C@H]2[C@H]1CC/C(C)=C/CC[C@@]1(C)O[C@@H]21 [parthenolide],TRPA1 activity,TRPA1,partial agonist of TRPA1
